Assay results: patent US8183201B2 (priority 2006, dated 2012)
Read-outs that look alike come from different tables or passages of the source.

Assays:
integrin αIIbβ3 = target: T1, integrin αIIbβ3 (Homo sapiens, UniProt P05106+P08514); assay type: cell-based
T1 construct: host or cells: CHO (CHO-αIIbβ3)

[1] = tested on: ovariectomized (OVX) mice; parameters: species or system ICR mice; settings: mouse, in vivo
[2] = tested on: ovariectomized (OVX) rats; settings: rat, in vivo, po, 1.5 mg/kg
osteoarthritis rats = tested on: osteoarthritis rats; parameters: species or system Sprague-Dawley rats; settings: rat, in vivo
[3] = tested on: Human prostate adenocarcinoma PC-3 cells; parameters: species or system SCID mice; settings: mouse, in vivo
[4] = tested on: VEGF-induced angiogenesis; parameters: species or system C57BL/6 mice; settings: mouse, in vivo
Calcitonin = target: T2, Calcitonin (Homo sapiens, UniProt P30988); assay type: binding
T2 construct: MDS Pharma services, Taipei, Taiwan (contract assay)
T2 sequence (P30988 25-474): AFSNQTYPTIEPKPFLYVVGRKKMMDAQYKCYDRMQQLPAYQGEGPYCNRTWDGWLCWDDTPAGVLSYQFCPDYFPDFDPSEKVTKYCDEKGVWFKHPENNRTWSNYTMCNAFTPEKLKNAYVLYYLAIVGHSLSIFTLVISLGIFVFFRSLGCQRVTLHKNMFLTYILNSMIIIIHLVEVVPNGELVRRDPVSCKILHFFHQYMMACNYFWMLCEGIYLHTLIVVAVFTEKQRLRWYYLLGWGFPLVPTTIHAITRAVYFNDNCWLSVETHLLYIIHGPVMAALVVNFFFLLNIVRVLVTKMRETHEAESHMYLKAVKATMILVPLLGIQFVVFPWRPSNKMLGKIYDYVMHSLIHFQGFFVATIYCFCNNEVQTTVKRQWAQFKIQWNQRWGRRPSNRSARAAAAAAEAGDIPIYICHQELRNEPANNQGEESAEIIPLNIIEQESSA

Endothelin ETA = target: T3, Endothelin ETA (Homo sapiens, UniProt P25101); assay type: binding
T3 construct: MDS Pharma services, Taipei, Taiwan (contract assay)
T3 sequence (P25101 21-427): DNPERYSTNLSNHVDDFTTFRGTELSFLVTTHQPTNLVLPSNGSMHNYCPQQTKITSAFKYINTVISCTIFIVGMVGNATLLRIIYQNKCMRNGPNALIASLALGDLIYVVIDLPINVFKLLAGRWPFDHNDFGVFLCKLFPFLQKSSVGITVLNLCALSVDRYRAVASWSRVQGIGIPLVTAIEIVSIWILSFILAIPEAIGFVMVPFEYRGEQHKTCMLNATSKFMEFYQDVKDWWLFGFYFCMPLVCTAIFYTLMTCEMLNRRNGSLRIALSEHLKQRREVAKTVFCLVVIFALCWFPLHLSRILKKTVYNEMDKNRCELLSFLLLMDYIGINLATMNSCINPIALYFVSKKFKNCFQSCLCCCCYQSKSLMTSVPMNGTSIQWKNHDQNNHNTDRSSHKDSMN

Endothelin ETB = target: T4, Endothelin ETB (Homo sapiens, UniProt P24530); assay type: binding
T4 construct: MDS Pharma services, Taipei, Taiwan (contract assay)
T4 sequence (P24530 27-442): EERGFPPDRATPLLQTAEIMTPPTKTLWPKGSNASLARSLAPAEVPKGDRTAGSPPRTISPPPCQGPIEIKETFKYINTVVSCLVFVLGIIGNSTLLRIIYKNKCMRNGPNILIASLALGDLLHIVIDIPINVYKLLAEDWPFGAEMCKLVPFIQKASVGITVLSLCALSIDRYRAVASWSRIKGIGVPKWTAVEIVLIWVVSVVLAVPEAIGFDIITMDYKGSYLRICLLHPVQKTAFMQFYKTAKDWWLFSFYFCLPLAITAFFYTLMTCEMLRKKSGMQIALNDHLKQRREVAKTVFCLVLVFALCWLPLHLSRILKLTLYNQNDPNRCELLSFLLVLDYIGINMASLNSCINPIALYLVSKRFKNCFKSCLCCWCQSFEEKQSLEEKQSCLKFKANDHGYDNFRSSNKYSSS

Sodium Channel (Site 2) = assay type: binding
TGF-β = assay type: binding
VEGF = assay type: binding
[5] = tested on: human breast cancer MDA-MB-231 cells; settings: mouse, in vivo

RD: rhodostomin variant having a RGD motif variant ^48PRLDMP^53, SEQ ID NO: 36
increase of IC50 in inhibition of integrin αIIbβ3 as compared to Rho (integrin αIIbβ3): more than 104 fold
BMC [1]: 0.582 ± 0.009 g
BMD [1]: 0.085 ± 0.002 g/cm^2
C-terminal telopeptide of COL(1)α1 chain [1]: 533 ± 27.4 ng/mL
BMC ([1]; po, 1.5 mg/kg): 0.627 ± 0.008 g
BMD ([1]; po, 1.5 mg/kg): 0.091 ± 0.001 g/cm^2
C-terminal telopeptide of COL(1)α1 chain ([1]; po, 1.5 mg/kg): 391 ± 8.3 ng/mL
BMC, Femur [2]: 0.441 ± 0.018 g
BMC, Tibia [2]: 0.299 ± 0.011 g
BMD, Femur [2]: 0.135 ± 0.004 g/cm^2
BMD, Tibia [2]: 0.113 ± 0.009 g/cm^2
Bone length, Femur [2]: 3.71 ± 0.06 mm
Bone length, Tibia [2]: 4.01 ± 0.03 mm
Bone volume [2]: 16.3 ± 2.7 %
Wet weight, Femur [2]: 985.3 ± 9.8 mg
Wet weight, Tibia [2]: 749 ± 20.1 mg
ovariectomy-induced increase in osteoclast activity (serum C-terminal telopeptide of type-I collagen) [2]: reversed the ovariectomy-induced increase in osteoclast activity
chondrocyte layer destruction in knee joint (osteoarthritis rats): inhibited the chondrocyte layer destruction
PC-3 tumor-induced osteolysis (radiographs) [3]: inhibited osteolysis
inhibition in tumor cell-induced swelling in hind legs [3]: 43.8±4.1%
tumor-induced decrease in body weight [3]: prevented the loss of body weight
tumor-induced increase in C-terminal telopeptides of type-I collagen [3]: inhibited a tumor-induced increase in C-terminal telopeptides
tumor-induced increase in the serum calcium concentration (hypercalcemia) ([3]; 1.5 mg/kg): inhibited a tumor-induced increase in the serum calcium concentration
tumor growth in legs (in words) ([3]; sc, 1.5 mg/kg): inhibited tumor growth
hemoglobin content in MATRIGEL plugs [4]: reduced hemoglobin content
inhibition of angiogenesis in MATRIGEL plug [4]: effective in inhibiting angiogenesis
Inhibition, Calcitonin (Calcitonin): 4%
Inhibition, Endothelin ETA (Endothelin ETA): 26%
Inhibition, Endothelin ETB (Endothelin ETB): 10%
Inhibition, Sodium Channel (Site 2) (Sodium Channel (Site 2)): 2%
Inhibition, TGF-β (TGF-β): 14%
Inhibition, VEGF (VEGF): −14%
MDA-MB-231-induced tumor growth in bone [5]: inhibited MDA-MB-231-induced increase in tumor growth in bone
blood counts of RBC, WBC and platelet [5]: did not affect the blood counts of RBC, WBC and platelet
tumor-induced hypercalcemia [5]: prevented
tumor-induced increase in osteoclast activity [5]: prevented the tumor-induced increase in osteoclast activity
